Measurements taken from ChEMBL document CHEMBL5678818, “Discovery of potent SOS1 inhibitors that block RAS activation via disruption of the RAS-SOS1 interaction” (Proc Natl Acad Sci U S A, 2019).

Assays:
[1] = biological target: T1, Phosphatidylinositol 5-phosphate 4-kinase type-2 gamma (Homo sapiens) (UniProt Q8TBX8); assay: Inhibition of PIP5K2C (unknown origin) assessed as residual activity at 1000 nM by KINOMEscan analysis relative to control
T1 sequence (whole entry): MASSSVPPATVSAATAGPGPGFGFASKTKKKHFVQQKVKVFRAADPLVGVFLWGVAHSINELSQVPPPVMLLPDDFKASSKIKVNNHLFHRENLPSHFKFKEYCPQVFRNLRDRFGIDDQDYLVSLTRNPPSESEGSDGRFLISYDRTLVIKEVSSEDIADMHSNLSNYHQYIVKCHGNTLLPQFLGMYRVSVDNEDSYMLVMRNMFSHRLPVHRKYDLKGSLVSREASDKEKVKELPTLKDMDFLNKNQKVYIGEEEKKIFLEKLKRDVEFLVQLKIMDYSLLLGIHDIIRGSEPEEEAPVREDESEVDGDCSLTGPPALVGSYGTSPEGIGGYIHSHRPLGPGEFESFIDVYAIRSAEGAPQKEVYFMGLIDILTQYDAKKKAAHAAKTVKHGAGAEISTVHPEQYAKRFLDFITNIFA

[2] = system: Epidermal growth factor receptor (Homo sapiens), P00533 [T790M]; assay: Inhibition of EGFR T790M mutant (unknown origin) assessed as residual activity at 1000 nM by KINOMEscan analysis relative to control
[3] = biological target: Serine/threonine-protein kinase Chk2 (Homo sapiens) (UniProt O96017); assay: Inhibition of CHEK2 (unknown origin) assessed as residual activity at 1000 nM by KINOMEscan analysis relative to control
Chain of Serine/threonine-protein kinase Chk2 (Homo sapiens) (O96017 whole entry): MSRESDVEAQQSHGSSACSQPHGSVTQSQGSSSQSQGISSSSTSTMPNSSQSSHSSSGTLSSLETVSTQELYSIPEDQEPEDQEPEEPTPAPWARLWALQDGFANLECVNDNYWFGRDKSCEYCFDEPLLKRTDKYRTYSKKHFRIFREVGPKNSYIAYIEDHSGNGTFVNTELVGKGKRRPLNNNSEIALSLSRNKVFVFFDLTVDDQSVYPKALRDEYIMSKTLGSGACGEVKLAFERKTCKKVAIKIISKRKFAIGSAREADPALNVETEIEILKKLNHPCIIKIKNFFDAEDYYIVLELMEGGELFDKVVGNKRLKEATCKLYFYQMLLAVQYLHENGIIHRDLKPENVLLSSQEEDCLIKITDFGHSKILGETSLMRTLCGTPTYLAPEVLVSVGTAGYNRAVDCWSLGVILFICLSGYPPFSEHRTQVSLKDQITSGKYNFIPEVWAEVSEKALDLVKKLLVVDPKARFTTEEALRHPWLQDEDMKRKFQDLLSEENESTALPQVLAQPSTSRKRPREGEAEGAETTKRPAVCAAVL

[4] = biological target: T2, Serine/threonine-protein kinase 17B (Homo sapiens) (UniProt O94768); assay: Inhibition of DRAK2 (unknown origin) assessed as residual activity at 1000 nM by KINOMEscan analysis relative to control
T2 sequence (whole entry): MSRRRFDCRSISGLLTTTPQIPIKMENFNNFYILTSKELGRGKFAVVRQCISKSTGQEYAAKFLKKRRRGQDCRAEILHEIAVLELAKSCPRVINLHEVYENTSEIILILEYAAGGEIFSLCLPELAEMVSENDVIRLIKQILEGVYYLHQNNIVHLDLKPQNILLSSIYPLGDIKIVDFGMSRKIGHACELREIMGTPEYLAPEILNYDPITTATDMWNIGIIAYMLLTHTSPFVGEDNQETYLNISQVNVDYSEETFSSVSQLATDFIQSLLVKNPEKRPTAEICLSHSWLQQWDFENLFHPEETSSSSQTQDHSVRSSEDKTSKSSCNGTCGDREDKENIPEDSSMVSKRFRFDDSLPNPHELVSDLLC

[5] = biological target: Ephrin type-A receptor 2 (Homo sapiens) (UniProt P29317); assay: Inhibition of EPHA2 (unknown origin) assessed as residual activity at 1000 nM by KINOMEscan analysis relative to control
Chain of Ephrin type-A receptor 2 (Homo sapiens) (P29317 whole entry): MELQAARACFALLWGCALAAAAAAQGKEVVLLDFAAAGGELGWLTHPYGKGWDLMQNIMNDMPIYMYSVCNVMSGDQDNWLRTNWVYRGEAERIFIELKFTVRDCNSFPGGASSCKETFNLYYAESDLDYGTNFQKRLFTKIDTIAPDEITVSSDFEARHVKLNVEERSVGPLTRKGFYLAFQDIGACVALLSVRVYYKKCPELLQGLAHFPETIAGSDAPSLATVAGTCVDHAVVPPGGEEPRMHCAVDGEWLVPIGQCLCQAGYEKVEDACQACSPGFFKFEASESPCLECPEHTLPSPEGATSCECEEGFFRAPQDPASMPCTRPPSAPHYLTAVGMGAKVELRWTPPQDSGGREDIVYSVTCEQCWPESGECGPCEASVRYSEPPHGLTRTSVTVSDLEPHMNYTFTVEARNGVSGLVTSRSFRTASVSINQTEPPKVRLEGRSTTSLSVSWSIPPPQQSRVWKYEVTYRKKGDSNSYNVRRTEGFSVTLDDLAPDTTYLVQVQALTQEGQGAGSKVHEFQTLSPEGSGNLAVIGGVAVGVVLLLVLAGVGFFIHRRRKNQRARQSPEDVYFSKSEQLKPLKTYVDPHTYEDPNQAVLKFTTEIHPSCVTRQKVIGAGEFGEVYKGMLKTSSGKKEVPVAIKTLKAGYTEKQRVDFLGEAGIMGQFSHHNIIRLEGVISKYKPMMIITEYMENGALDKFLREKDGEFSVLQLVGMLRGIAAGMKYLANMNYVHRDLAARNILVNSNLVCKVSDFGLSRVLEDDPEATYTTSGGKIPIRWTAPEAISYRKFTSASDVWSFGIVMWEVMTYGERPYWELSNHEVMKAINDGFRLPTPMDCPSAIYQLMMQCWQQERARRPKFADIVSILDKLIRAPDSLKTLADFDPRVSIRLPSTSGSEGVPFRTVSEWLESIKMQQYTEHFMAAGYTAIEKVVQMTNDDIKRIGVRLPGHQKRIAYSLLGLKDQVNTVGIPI

[6] = biological target: Serine/threonine-protein kinase SBK1 (Homo sapiens) (UniProt Q52WX2); assay: Inhibition of SBK1 (unknown origin) assessed as residual activity at 1000 nM by KINOMEscan analysis relative to control
Chain of Serine/threonine-protein kinase SBK1 (Homo sapiens) (Q52WX2 whole entry): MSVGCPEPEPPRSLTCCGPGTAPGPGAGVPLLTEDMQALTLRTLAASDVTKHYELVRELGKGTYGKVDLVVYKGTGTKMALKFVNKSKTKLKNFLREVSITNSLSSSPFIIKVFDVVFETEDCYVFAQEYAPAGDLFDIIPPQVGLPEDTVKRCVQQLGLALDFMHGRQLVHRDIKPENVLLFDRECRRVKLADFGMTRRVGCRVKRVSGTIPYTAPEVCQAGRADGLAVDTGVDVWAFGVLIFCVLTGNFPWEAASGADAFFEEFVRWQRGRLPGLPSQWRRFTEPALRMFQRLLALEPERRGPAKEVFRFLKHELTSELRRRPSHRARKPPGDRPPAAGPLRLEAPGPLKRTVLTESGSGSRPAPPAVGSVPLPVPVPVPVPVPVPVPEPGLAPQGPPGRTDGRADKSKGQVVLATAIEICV

[7] = biological target: MAP/microtubule affinity-regulating kinase 3 (Homo sapiens) (UniProt P27448); assay: Inhibition of MARK3 (unknown origin) assessed as residual activity at 1000 nM by KINOMEscan analysis relative to control
Chain of MAP/microtubule affinity-regulating kinase 3 (Homo sapiens) (P27448 whole entry, looked up): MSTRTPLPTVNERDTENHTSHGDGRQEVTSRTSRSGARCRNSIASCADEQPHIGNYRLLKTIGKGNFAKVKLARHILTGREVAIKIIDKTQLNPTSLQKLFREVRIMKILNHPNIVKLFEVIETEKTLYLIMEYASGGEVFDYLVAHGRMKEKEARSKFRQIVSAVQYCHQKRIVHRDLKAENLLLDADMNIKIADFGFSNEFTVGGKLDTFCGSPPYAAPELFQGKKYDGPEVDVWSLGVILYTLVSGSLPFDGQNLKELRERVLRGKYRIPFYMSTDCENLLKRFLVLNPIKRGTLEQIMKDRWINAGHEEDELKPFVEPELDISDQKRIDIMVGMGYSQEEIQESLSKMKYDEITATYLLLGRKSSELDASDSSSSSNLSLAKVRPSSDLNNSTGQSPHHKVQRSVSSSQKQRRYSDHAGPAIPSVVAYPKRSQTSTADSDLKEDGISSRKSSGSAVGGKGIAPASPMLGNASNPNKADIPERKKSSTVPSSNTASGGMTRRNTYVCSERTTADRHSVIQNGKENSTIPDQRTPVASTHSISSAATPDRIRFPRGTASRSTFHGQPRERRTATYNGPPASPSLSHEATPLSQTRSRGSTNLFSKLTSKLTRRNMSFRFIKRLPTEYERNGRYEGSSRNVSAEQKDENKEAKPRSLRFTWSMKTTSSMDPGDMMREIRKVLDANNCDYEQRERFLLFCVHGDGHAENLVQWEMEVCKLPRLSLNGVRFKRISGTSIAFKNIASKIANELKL

[8] = biological target: T3, Cyclin-dependent kinase-like 5 (Homo sapiens) (UniProt O76039); assay: Inhibition of CDKL5 (unknown origin) assessed as residual activity at 1000 nM by KINOMEscan analysis relative to control
T3 sequence (whole entry): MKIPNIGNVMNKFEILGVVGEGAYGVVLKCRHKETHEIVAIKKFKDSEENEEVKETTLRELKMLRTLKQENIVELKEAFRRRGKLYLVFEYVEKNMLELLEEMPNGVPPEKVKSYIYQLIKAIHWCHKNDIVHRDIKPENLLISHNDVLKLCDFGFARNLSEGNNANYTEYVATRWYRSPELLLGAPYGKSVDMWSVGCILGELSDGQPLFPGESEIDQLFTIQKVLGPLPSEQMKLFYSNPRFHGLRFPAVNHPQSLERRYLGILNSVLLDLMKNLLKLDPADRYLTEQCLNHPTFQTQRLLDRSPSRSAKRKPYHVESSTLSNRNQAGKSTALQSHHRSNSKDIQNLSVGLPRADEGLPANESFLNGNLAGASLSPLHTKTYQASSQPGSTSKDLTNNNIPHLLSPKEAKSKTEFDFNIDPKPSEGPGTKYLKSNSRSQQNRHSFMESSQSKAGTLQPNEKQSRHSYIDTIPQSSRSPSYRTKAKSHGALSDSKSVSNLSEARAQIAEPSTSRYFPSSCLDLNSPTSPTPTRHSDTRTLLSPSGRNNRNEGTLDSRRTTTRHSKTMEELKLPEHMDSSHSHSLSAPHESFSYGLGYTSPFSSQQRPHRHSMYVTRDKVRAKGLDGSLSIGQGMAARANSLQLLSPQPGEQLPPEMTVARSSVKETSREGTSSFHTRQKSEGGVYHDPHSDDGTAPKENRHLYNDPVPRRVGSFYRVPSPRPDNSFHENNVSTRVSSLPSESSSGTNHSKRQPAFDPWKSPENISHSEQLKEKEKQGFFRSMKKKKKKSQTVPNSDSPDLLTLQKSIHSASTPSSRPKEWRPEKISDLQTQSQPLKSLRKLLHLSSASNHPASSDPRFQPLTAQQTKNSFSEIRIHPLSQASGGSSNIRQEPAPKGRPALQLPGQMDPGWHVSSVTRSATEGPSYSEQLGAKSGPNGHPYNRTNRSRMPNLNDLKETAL

[9] = biological target: Proto-oncogene tyrosine-protein kinase ROS (Homo sapiens) (UniProt P08922); assay: Inhibition of ROS1 (unknown origin) assessed as residual activity at 1000 nM by KINOMEscan analysis relative to control
[10] = biological target: Fibroblast growth factor receptor 2 (Homo sapiens) (UniProt P21802); assay: Inhibition of FGFR2 (unknown origin) assessed as residual activity at 1000 nM by KINOMEscan analysis relative to control
Chain of Fibroblast growth factor receptor 2 (Homo sapiens) (P21802 22-821 limits assumed): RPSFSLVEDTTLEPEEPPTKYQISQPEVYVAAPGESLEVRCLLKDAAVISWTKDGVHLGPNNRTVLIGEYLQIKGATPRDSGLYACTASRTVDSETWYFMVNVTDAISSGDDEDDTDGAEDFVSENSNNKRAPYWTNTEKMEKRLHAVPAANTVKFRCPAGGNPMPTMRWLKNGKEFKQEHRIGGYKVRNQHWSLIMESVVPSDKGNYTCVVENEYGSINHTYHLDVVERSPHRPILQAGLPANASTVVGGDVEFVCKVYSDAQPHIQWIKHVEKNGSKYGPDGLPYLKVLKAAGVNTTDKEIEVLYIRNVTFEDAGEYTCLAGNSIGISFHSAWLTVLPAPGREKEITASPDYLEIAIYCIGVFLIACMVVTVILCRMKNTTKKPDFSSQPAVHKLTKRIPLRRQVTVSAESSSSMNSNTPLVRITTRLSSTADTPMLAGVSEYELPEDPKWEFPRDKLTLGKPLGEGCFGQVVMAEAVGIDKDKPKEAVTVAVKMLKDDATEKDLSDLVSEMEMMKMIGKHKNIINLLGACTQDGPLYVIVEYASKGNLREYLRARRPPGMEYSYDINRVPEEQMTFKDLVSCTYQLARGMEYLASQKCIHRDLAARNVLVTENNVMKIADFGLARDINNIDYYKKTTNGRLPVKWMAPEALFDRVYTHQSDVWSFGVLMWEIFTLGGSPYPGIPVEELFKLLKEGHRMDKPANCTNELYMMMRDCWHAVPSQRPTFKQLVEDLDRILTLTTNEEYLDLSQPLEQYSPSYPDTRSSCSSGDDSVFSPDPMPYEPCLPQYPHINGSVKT

[11] = biological target: ALK tyrosine kinase receptor (Homo sapiens) (UniProt Q9UM73); assay: Inhibition of ALK (unknown origin) assessed as residual activity at 1000 nM by KINOMEscan analysis relative to control
Chain of ALK tyrosine kinase receptor (Homo sapiens) (Q9UM73 19-1620 limits assumed): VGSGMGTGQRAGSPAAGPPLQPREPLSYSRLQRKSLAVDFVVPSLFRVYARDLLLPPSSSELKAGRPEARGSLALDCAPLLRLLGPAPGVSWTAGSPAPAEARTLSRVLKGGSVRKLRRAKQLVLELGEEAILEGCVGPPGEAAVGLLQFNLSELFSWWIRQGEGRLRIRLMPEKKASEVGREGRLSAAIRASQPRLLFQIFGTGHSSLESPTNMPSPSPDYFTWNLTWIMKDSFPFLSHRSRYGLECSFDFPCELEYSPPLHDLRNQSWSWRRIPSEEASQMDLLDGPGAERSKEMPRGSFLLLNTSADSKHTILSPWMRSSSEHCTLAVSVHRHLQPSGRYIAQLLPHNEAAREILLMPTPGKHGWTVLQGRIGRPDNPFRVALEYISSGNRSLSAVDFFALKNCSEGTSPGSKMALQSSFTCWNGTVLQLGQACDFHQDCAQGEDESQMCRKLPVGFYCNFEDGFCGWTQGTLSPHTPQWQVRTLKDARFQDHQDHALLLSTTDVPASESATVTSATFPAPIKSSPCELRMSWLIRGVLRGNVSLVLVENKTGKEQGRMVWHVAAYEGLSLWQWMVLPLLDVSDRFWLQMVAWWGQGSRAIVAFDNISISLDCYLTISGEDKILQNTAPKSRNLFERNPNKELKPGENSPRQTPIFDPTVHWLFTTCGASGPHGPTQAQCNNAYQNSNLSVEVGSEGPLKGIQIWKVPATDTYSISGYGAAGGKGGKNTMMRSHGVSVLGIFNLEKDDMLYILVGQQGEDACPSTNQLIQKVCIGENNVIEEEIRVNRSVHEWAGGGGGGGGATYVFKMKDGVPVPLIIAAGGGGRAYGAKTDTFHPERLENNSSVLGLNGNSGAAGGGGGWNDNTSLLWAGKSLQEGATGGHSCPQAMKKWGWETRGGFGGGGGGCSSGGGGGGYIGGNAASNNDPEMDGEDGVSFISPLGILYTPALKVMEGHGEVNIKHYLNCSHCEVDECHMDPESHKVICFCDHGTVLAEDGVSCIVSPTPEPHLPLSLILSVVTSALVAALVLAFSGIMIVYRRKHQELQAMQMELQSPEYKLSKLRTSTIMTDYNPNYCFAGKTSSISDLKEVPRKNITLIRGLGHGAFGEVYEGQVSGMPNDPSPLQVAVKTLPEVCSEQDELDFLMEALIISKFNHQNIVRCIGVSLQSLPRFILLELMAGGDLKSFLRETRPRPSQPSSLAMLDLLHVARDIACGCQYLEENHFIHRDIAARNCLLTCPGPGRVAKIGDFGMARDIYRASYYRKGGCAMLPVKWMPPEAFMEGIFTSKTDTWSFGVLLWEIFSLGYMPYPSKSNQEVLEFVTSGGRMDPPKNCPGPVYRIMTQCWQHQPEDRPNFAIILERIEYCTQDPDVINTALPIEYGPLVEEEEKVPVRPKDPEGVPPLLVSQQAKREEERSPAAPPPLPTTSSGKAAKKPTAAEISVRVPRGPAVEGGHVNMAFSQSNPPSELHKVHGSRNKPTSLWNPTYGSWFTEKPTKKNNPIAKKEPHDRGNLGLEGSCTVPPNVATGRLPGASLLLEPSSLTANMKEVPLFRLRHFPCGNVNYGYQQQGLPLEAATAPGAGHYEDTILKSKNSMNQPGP

COc1cc2nc(C)nc(N[C@H](C)c3cccc(-c4cn[nH]c4)c3)c2cc1OC
Activity [1]: 69%
Activity [2]: 87%
Activity [3]: 89%
Activity [4]: 67%
Activity [5]: 45%
Activity [6]: 85%
Activity [7]: 100%
Activity [8]: 82%
Activity [9]: 100%
Activity [10]: 67%
Activity [11]: 100%

COc1cc2ncnc(N[C@H](C)c3cccc4ccccc34)c2cc1OC
Activity [1]: 80%
Activity [2]: 81%
Activity [3]: 73%
Activity [4]: 100%
Activity [5]: 94%
Activity [6]: 86%
Activity [7]: 64%
Activity [8]: 94%
Activity [9]: 90%
Activity [10]: 100%
Activity [11]: 85%
